Test results from ChEMBL document CHEMBL4308864, “Targeting tyrosine kinase: Development of acridone - pyrrole - oxindole hybrids against human breast cancer” (2019).

Tests used:
Type in all cases: functional
HL-60(TB) = assay: Growth inhibition of human HL-60(TB) cells assessed as cell growth at 10^-5 M incubated for 48 hrs by sulforhodamine B assay relative to control; details: HL-60, 48 h, read-out: Activity
MOLT-4 = assay: Growth inhibition of human MOLT4 cells assessed as cell growth at 10^-5 M incubated for 48 hrs by sulforhodamine B assay relative to control; details: MOLT-4, 48 h, read-out: Activity
SR = assay: Growth inhibition of human SR cells assessed as cell growth at 10^-5 M incubated for 48 hrs by sulforhodamine B assay relative to control; details: read-out: Activity
A549 = assay: Growth inhibition of human A549/ATCC cells assessed as cell growth at 10^-5 M incubated for 48 hrs by sulforhodamine B assay relative to control; details: A549, 48 h, read-out: Activity
EKVX = assay: Growth inhibition of human EKVX cells assessed as cell growth at 10^-5 M incubated for 48 hrs by sulforhodamine B assay relative to control; details: read-out: Activity
HOP-62 = assay: Growth inhibition of human HOP62 cells assessed as cell growth at 10^-5 M incubated for 48 hrs by sulforhodamine B assay relative to control; details: HOP-62, 48 h, read-out: Activity
NCI-H226 = assay: Growth inhibition of human NCI-H226 cells assessed as cell growth at 10^-5 M incubated for 48 hrs by sulforhodamine B assay relative to control; details: NCI-H226, 48 h, read-out: Activity
NCI-H23 = assay: Growth inhibition of human NCI-H23 cells assessed as cell growth at 10^-5 M incubated for 48 hrs by sulforhodamine B assay relative to control; details: NCI-H23, 48 h, read-out: Activity
NCI-H522 = assay: Growth inhibition of human NCI-H522 cells assessed as cell growth at 10^-5 M incubated for 48 hrs by sulforhodamine B assay relative to control; details: NCI-H522, 48 h, read-out: Activity
HCT-116 = assay: Growth inhibition of human HCT116 cells assessed as cell growth at 10^-5 M incubated for 48 hrs by sulforhodamine B assay relative to control; details: HCT-116, 48 h, read-out: Activity
HCT-15 = assay: Growth inhibition of human HCT15 cells assessed as cell growth at 10^-5 M incubated for 48 hrs by sulforhodamine B assay relative to control; details: HCT-15, 48 h, read-out: Activity
HT-29 = assay: Growth inhibition of human HT-29 cells assessed as cell growth at 10^-5 M incubated for 48 hrs by sulforhodamine B assay relative to control; details: HT-29, 48 h, read-out: Activity
SW-620 = assay: Growth inhibition of human SW620 cells assessed as cell growth at 10^-5 M incubated for 48 hrs by sulforhodamine B assay relative to control; details: SW-620, 48 h, read-out: Activity
SNB-19 = assay: Growth inhibition of human SNB19 cells assessed as cell growth at 10^-5 M incubated for 48 hrs by sulforhodamine B assay relative to control; details: SNB-19, 48 h, read-out: Activity
Malme-3M = assay: Growth inhibition of human MALME-3M cells assessed as cell growth at 10^-5 M incubated for 48 hrs by sulforhodamine B assay relative to control; details: read-out: Activity
MDA-MB-435 = assay: Growth inhibition of human MDA-MB-435 cells assessed as cell growth at 10^-5 M incubated for 48 hrs by sulforhodamine B assay relative to control; details: MDA-MB-435, 48 h, read-out: Activity
SK-MEL-2 = assay: Growth inhibition of human SK-MEL-2 cells assessed as cell growth at 10^-5 M incubated for 48 hrs by sulforhodamine B assay relative to control; details: SK-MEL-2, 48 h, read-out: Activity
SK-MEL-28 = assay: Growth inhibition of human SK-MEL-28 cells assessed as cell growth at 10^-5 M incubated for 48 hrs by sulforhodamine B assay relative to control; details: SK-MEL-28, 48 h, read-out: Activity
SK-MEL-5 = assay: Growth inhibition of human SK-MEL-5 cells assessed as cell growth at 10^-5 M incubated for 48 hrs by sulforhodamine B assay relative to control; details: SK-MEL-5, 48 h, read-out: Activity
UACC-62 = assay: Growth inhibition of human UACC62 cells assessed as cell growth at 10^-5 M incubated for 48 hrs by sulforhodamine B assay relative to control; details: UACC-62, 48 h, read-out: Activity
OVCAR-5 = assay: Growth inhibition of human OVCAR5 cells assessed as cell growth at 10^-5 M incubated for 48 hrs by sulforhodamine B assay relative to control; details: OVCAR-5, 48 h, read-out: Activity
786-0 = assay: Growth inhibition of human 786-0 cells assessed as cell growth at 10^-5 M incubated for 48 hrs by sulforhodamine B assay relative to control; details: 786-0, 48 h, read-out: Activity
ACHN = assay: Growth inhibition of human ACHN cells assessed as cell growth at 10^-5 M incubated for 48 hrs by sulforhodamine B assay relative to control; details: read-out: Activity
RXF 393 = assay: Growth inhibition of human RXF393 cells assessed as cell growth at 10^-5 M incubated for 48 hrs by sulforhodamine B assay relative to control; details: RXF 393, 48 h, read-out: Activity
PC-3 = assay: Growth inhibition of human PC3 cells assessed as cell growth at 10^-5 M incubated for 48 hrs by sulforhodamine B assay relative to control; details: PC-3, 48 h, read-out: Activity
MCF7 = assay: Growth inhibition of human MCF7 cells at 10^-5 M incubated for 48 hrs by sulforhodamine B assay relative to control; details: MCF7, 48 h, read-out: GI
Hs-578T = assay: Growth inhibition of human Hs578T cells assessed as cell growth at 10^-5 M incubated for 48 hrs by sulforhodamine B assay relative to control; details: read-out: Activity
MDA-MB-468 = assay: Growth inhibition of human MDA-MB-468 cells at 10^-5 M incubated for 48 hrs by sulforhodamine B assay relative to control; details: MDA-MB-468, 48 h, read-out: GI

| SMILES | growth at 10 µM (HL-60(TB)) | growth at 10 µM (MOLT-4) | growth at 10 µM (SR) | growth at 10 µM (A549) | growth at 10 µM (EKVX) | growth at 10 µM (HOP-62) | growth at 10 µM (NCI-H226) | growth at 10 µM (NCI-H23) | growth at 10 µM (NCI-H522) | growth at 10 µM (HCT-116) | growth at 10 µM (HCT-15) | growth at 10 µM (HT-29) | growth at 10 µM (SW-620) | growth at 10 µM (SNB-19) | growth at 10 µM (Malme-3M) | growth at 10 µM (MDA-MB-435) | growth at 10 µM (SK-MEL-2) | growth at 10 µM (SK-MEL-28) | growth at 10 µM (SK-MEL-5) | growth at 10 µM (UACC-62) | further results |
| --- | --- | --- | --- | --- | --- | --- | --- | --- | --- | --- | --- | --- | --- | --- | --- | --- | --- | --- | --- | --- | --- |
| O=C1/C(=C\c2cccn2CCCCCn2c3ccccc3c(=O)c3ccccc32)c2ccccc2N1c1c(Cl)cccc1Cl | 96.8% | 87.6% | 92.3% | 85.9% | 94.6% | 102% | 91.6% | 98% | 84.9% | 85.9% | 59.8% | 96.2% | 95.7% | 98.5% | 108% | 108% | 101% | 113% | 96.2% | 82.6% | growth at 10 µM (OVCAR-5): 94.5%; growth at 10 µM (786-0): 104%; growth at 10 µM (ACHN): 100%; growth at 10 µM (RXF 393): 100%; growth at 10 µM (PC-3): 73.2%; inhibition of growth at 10 µM (MCF7): 87%; growth at 10 µM (Hs-578T): 101%; inhibition of growth at 10 µM (MDA-MB-468): 39% |
| O=C1Nc2ccccc2/C1=C/c1cccn1CCCCCn1c2ccccc2c(=O)c2ccccc21 | 47.6% | 46% | 76.1% | 81.4% | 71.8% | 58.3% | 70% | 69.6% | 66.3% | 69.8% | 28.9% | 89.5% | 100% | 95.3% | 84.5% | 93.6% | 84% | 88.1% | 32.2% | 48.2% | growth at 10 µM (OVCAR-5): 82.6%; growth at 10 µM (786-0): 105%; growth at 10 µM (ACHN): 55.1%; growth at 10 µM (RXF 393): 89.2%; growth at 10 µM (PC-3): 42%; inhibition of growth at 10 µM (MCF7): 99%; growth at 10 µM (Hs-578T): 90.5%; inhibition of growth at 10 µM (MDA-MB-468): 62% |
| O=C1/C(=C\c2cccn2CCCCCCn2c3ccccc3c(=O)c3ccccc32)c2ccccc2N1c1c(Cl)cccc1Cl | 103% | 91.2% | 91.5% | 96% | 89.5% | 102% | 81.9% | 101% | 91% | 103% | 67.1% | 106% | 108% | 99.2% | 102% | 105% | 98.8% | 108% | 94.7% | 85.5% | growth at 10 µM (OVCAR-5): 93.5%; growth at 10 µM (786-0): 103%; growth at 10 µM (ACHN): 97.7%; growth at 10 µM (RXF 393): 97%; growth at 10 µM (PC-3): 73.9%; inhibition of growth at 10 µM (MCF7): 85%; growth at 10 µM (Hs-578T): 103%; inhibition of growth at 10 µM (MDA-MB-468): 56% |
| O=C1NC(=O)C(=Cc2cccn2CCCCCCn2c3ccccc3c(=O)c3ccccc32)C(=O)N1 | 91.3% | 79.6% | 72.2% | 95.6% | 100% | 93.1% | 89.5% | 84.2% | 92.7% | 71.2% | 90.3% | 105% | 96.9% | 94.2% | 112% | 102% | 107% | 111% | 85.7% | 82.1% | growth at 10 µM (OVCAR-5): 98.3%; growth at 10 µM (786-0): 97.9%; growth at 10 µM (ACHN): 103%; growth at 10 µM (RXF 393): 106%; growth at 10 µM (PC-3): 87.7%; inhibition of growth at 10 µM (MCF7): 24%; growth at 10 µM (Hs-578T): 106%; inhibition of growth at 10 µM (MDA-MB-468): 5% |
| O=C1NC(=O)C(=Cc2cccn2CCCCn2c3ccccc3c(=O)c3ccccc32)C(=O)N1 | 60.1% | 70.4% | 51.6% | 94.6% | 100% | 79.1% | 88.7% | 81.7% | 70.5% | 76.7% | 81.4% | 90.2% | 87.9% | 75.4% | 95.6% | 79.9% | 92.9% | 95.8% | 73.8% | 66.1% | growth at 10 µM (OVCAR-5): 91.8%; growth at 10 µM (786-0): 86.6%; growth at 10 µM (ACHN): 92.8%; growth at 10 µM (RXF 393): 81.4%; growth at 10 µM (PC-3): 86.3%; inhibition of growth at 10 µM (MCF7): 43%; growth at 10 µM (Hs-578T): 85.1%; inhibition of growth at 10 µM (MDA-MB-468): 40% |
| O=C1Nc2ccccc2/C1=C/c1cccn1CCCCCCn1c2ccccc2c(=O)c2ccccc21 | 54.5% | 50.9% | 80.8% | 87.8% | 65.3% | 63.2% | 72.7% | 73.6% | 66% | 70.4% | 23% | 92.9% | 102% | 97.1% | 90.7% | 96.7% | 86.2% | 111% | 34.7% | 50.3% | growth at 10 µM (OVCAR-5): 82.2%; growth at 10 µM (786-0): 103%; growth at 10 µM (ACHN): 89.7%; growth at 10 µM (RXF 393): 99.2%; growth at 10 µM (PC-3): 40.1%; inhibition of growth at 10 µM (MCF7): 99%; growth at 10 µM (Hs-578T): 96.3%; inhibition of growth at 10 µM (MDA-MB-468): 92% |
| O=C1Nc2ccccc2/C1=C/c1cccn1CCCCn1c2ccccc2c(=O)c2ccccc21 | 60.2% | 47.7% | 80.1% | 86.3% | 86.1% | 77.4% | 75.2% | 77.4% | 68.4% | 74.2% | 31.7% | 89.1% | 98.8% | 98.4% | 91.9% | 92.7% | 84% | 105% | 38.6% | 51.8% | growth at 10 µM (OVCAR-5): 77.9%; growth at 10 µM (786-0): 97%; growth at 10 µM (ACHN): 76.3%; growth at 10 µM (RXF 393): 88.1%; growth at 10 µM (PC-3): 55.1%; inhibition of growth at 10 µM (MCF7): 96%; growth at 10 µM (Hs-578T): 86.3%; inhibition of growth at 10 µM (MDA-MB-468): 49% |
